From patent publication US9604998B2, “Inhibitors of the renal outer medullary potassium channel” (MERCK SHARP & DOHME CORP., priority 2013, dated 2017)

Key:
[1] = molecular target: Kir1.1 (ROMK1) (Homo sapiens (Human), UniProt P48048); test: Electrophysiology Assay (whole cell voltage clamp, IonWorks Quattro); format: cell-based; details: Chinese hamster ovary cells stably expressing Kir1.1; block during voltage step to 0 mV; read-out: Electrophysiology IC50
Procedure: Chinese hamster ovary cells stably expressing Kir1.1 channels were maintained in T-75 flasks in cell culture media in a humidified 10% CO2 incubator at 37° C. Prior to an experiment, Kir1.1 expression was induced by overnight incubation with 1 mM sodium butyrate. […] After centrifugation, the cell pellet was resuspended in approximately 4.0 mL of bath solution and placed in the IonWorks instrument. The intracellular solution consisted of (in mM): 80 K gluconate, 40 KCl, 20 KF, 3.2 MgCl2, 3 EGTA, 5 Hepes, pH 7.4. Electrical access to the cytoplasm was achieved by perforation in 0.13 mg/mL amphotericin B for 4 min. […] Voltage protocols and current recordings were performed using the IonWorks HT software/hardware system. Currents were sampled at 1 kHz. No correction for liquid junction potentials was used. The test pulse, consisting of a 100 ms step to 0 mV from a holding potential of −70 mV, followed by a 100 ms voltage ramp from −70 mV to +70 mV, was applied before and after a 6 min compound incubation period. Test compounds were prepared by diluting DMSO stock solutions into the bath solution at 3× the final concentration and placed in the instrument in 96-well polypropylene plates. Current amplitudes were measured using the IonWorks software.

[2] = molecular target: hROMK (hKir1.1) (Homo sapiens (Human), UniProt P48048); test: Thallium Flux Assay (ROMK channel functional thallium flux, FLIPR-Tetra); format: cell-based; details: HEK293 cells stably expressing hROMK (hKir1.1); read-out: Thallium Flux IC50
Procedure: HEK293 cells stably expressing hROMK (hKir1.1) were grown at 37° C. in a 10% CO2 humidified incubator in complete growth media: Dulbecco's Modified Eagle Medium supplemented with non-essential amino acids, Penicillin/Streptomycin/Glutamine, G418 and FBS. At >80% confluency, aspirate the media from the flask and rinse with 10 mL Calcium/Magnesium-free PBS. […] To dislodge the cell, gently bang the side of the flask with your hand. Triturate the cells completely and then transfer the cells to 25 mL complete media. Centrifuge at 1,500 rpm for 6 min followed by resuspension in complete growth media and determine cell concentration.
Compound Buffer (per microplate): 20 mL Probenecid/Assay Buffer; 0.3 mM ouabain (10 mM ouabain in water can be stored in amber bottle/aluminum foil at room temperature); Test compound
Stimulant Buffer (prepared at 5× final concentration in 1× FluxOR™ Chloride-Free Buffer): 7.5 mM Thallium sulfate and […] (to give a final assay concentration of 3 mM Thallium/0.3 mM Potassium). Store at 4° C. when not in use. If kept sterile, this solution is good for months.
The ROMK channel functional thallium flux assay is performed in 384 wells, using the FLIPR-Tetra instrument. HEK-hKir1.1 cells are seeded in Poly-D-Lysine microplates and kept in a 37° C.-10% CO2 incubator overnight. On the day of the experiment, the growth media is replaced with the FluxOR™ reagent loading buffer and incubated, protected from light, at ambient temperature (23-25° C.) for 90 min. The loading buffer is replaced with assay buffer±test compound followed by 30 min incubation at ambient temperature, where the Thallium/Potassium stimulant is added to the microplate.
1. Seed HEK-hKir1.1 cells (50 μl at 20,000 cells/well) in 384-well PDL coated Microplates
2. Allow cells to adhere overnight in humidified 37° C./10% CO2 incubator
3. Completely remove cell growth media from microplate and replace with 25 μl loading buffer
4. Incubate Microplate at room temperature, protected form light, for 90 min
5. Remove loading buffer and replace with 25 μl 1× Assay Buffer±test compound.
6. Incubate microplate at room temperature, protected from light, for 30 min
7. […] Excitation=400 nm, Emission=460 & 580 nm. Collect data for ˜10 min.
The fluorescence intensity of wells containing 3 μM of a standard control ROMK inhibitor of the present invention is used to define the ROMK-sensitive component of thallium flux. Fluorescence in the presence of test compounds is normalized to control values to provide % fluorescence change.

Chain of hROMK (hKir1.1) (P48048 whole entry): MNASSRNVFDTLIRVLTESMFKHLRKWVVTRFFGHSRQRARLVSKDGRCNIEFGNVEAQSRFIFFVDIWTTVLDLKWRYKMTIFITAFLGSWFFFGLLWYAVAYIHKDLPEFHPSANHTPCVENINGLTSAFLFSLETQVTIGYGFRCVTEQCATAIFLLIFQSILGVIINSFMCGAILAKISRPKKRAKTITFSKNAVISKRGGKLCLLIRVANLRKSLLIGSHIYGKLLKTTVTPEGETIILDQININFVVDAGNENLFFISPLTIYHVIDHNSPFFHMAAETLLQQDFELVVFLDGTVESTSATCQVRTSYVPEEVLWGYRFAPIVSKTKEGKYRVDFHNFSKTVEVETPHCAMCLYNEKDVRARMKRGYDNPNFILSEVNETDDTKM
Chain of Kir1.1 (ROMK1) (P48048 whole entry, species assumed): as the sequence (P48048 whole entry) above

In the case of `COc1cc(C(O)CN2CCN3C[C@H](c4ccc5c(c4C)COC5=O)OC[C@H]3C2)c(F)cc1C#N` (stereo partly drawn) [Example 36, (3S,9aR)-8-[2-(4-cyano-2-fluoro-5-methoxyphenyl)-2-hydroxyethyl]-3-(4-methyl-1-oxo-1,3-dihydro-2-benzofuran-5-yl)octahydropyrazino[2,1-c][1,4]oxazin-5-ium chloride], the IC50 [1] is reported as 120 nM and the IC50 [2] is reported as 390 nM.
Work on `Cc1c([C@@H]2CN3CCN(CC(O)c4cc(F)c(C#N)c(F)c4)C[C@H]3CO2)ccc2c1COC2=O` (stereo partly drawn) [Example 38, (3R,9aS)-8-[2-(4-cyano-3,5-difluorophenyl)-2-hydroxyethyl]-3-(4-methyl-1-oxo-1,3-dihydro-2-benzofuran-5-yl)octahydropyrazino[2,1-c][1,4]oxazin-5-ium chloride] yielded an IC50 [1] of 120 nM and an IC50 [2] of 440 nM.
`COc1cc(C(O)CN2CCN3C[C@@H](c4ccc5c(c4C)COC5=O)OC[C@@H]3C2)cc(F)c1C#N` (stereo partly drawn) [Example 48, (3R,9aS)-8-[2-(4-cyano-3-fluoro-5-methoxyphenyl)-2-hydroxyethyl]-3-(4-methyl-1-oxo-1,3-dihydro-2-benzofuran-5-yl)octahydropyrazino[2,1-c][1,4]oxazin-5-ium chloride] showed an IC50 [1] of 210 nM and an IC50 [2] of 220 nM.
Work on `Cc1c([C@@H](O)CN2CCN3C[C@@H](c4cc(F)c(C#N)c(F)c4)OC[C@@H]3C2)ccc2c1COC2=O` [Example 52, (3R,9aS)-3-(4-cyano-3,5-difluorophenyl)-8-[(2R)-2-hydroxy-2-(4-methyl-1-oxo-1,3-dihydro-2-benzofuran-5-yl)ethyl]octahydropyrazino[2,1-c][1,4]oxazin-8-ium chloride] yielded an IC50 [1] of 100 nM and an IC50 [2] of 410 nM.
`COc1cc([C@H]2CN3CCN(C[C@H](O)c4ccc5c(c4C)COC5=O)C[C@@H]3CO2)cc(F)c1C#N` [Example 53, (3S,9aR)-3-(4-cyano-3-fluoro-5-methoxyphenyl)-8-[(2R)-2-hydroxy-2-(4-methyl-1-oxo-1,3-dihydro-2-benzofuran-5-yl)ethyl]octahydropyrazino[2,1-c][1,4]oxazin-8-ium chloride] showed an IC50 [1] of 80 nM and an IC50 [2] of 240 nM.
`Cc1c([C@@H](O)CN2CCN3C[C@H](c4ccc5c(c4C)COC5=O)SC[C@@H]3C2)ccc2c1COC2=O` [Example 55, 5-{(3S,9aS)-8-[(2R)-2-hydroxy-2-(4-methyl-1-oxo-1,3-dihydro-2-bcnzofuran-5-yl)ethyl]octahydropyrazino[2,1-c][1,4]thiazin-3-yl}-4-methyl-2-benzofuran-1(3H)-one] gave an IC50 [1] of 90 nM and an IC50 [2] of 330 nM.
`COc1cc(CCN2CCN3C[C@@H](c4ccc5c(c4C)COC5=O)OC[C@@H]3C2)ccc1C#N` [Example 56, 2-methoxy-4-(2-((3R,9aS)-3-(4-methyl-1-oxo-1,3-dihydroisobenzofuran-5-yl)hexahydropyrazino[2,1-c][1,4]oxazin-8(1H)-yl)ethyl)benzonitrile] showed an IC50 [1] of 70 nM and an IC50 [2] of 40 nM.
For `Cc1c(CCN2CCN3C[C@@H](c4ccc5c(c4C)COC5=O)OC[C@@H]3C2)ccc2c1COC2=O` [Example 57, 4-Methyl-5-((3R,9aS)-8-(2-(4-methyl-1-oxo-1,3-dihydroisobenzofuran-5-yl)ethyl)octahydropyrazino[2,1-c][1,4]oxazin-3-yl)isobenzofuran-1(3H)-one], the IC50 [1] was 90 nM and the IC50 [2] was 30 nM.
Work on `COc1cc(CCN2CCN3C[C@H](c4ccc5c(c4C)COC5=O)OC[C@H]3C2)ccc1C#N` [Example 61] yielded an IC50 [1] of 120 nM and an IC50 [2] of 330 nM.
In the case of `O=C1OCc2cc(CCN3CCN4C[C@H](c5ccc6c(c5)COC6=O)OC[C@@H]4C3)ccc21` [Example 63], the IC50 [1] is reported as 40 nM and the IC50 [2] is reported as 230 nM.
For `Cc1c([C@@H]2CN3CCN(CCc4ccc5c(c4)COC5=O)C[C@H]3CO2)ccc2c1COC2=O` [Example 64], the IC50 [1] was 40 nM and the IC50 [2] was 40 nM.
With `Cc1c([C@H]2CN3CCN(CCc4ccc5c(c4)COC5=O)C[C@H]3CO2)ccc2c1COC2=O` [Example 65] the IC50 [1] was 110 nM and the IC50 [2] was 170 nM.
For `Cc1c([C@H]2CN3CCN(CC(C)c4ccc5c(c4)COC5=O)C[C@H]3CO2)ccc2c1COC2=O` (some centres unmarked) [Example 66], the IC50 [1] was 140 nM and the IC50 [2] was 170 nM.
`Cc1c(CCN2CCN3C[C@@H](c4ccc5c(c4)COC5=O)OC[C@@H]3C2)ccc2c1COC2=O` [Example 69] was tested, and the IC50 [1] was 20 nM and the IC50 [2] was 60 nM.
`Cc1c(CCN2CCN3C[C@H](c4ccc5c(c4)COC5=O)OC[C@@H]3C2)ccc2c1COC2=O` [Example 70] showed an IC50 [1] of 30 nM and an IC50 [2] of 120 nM.
With `COc1cc([C@@H]2CN3CCN(CCc4ccc5c(c4C)COC5=O)C[C@H]3CO2)ccc1C#N` [Example 71] the IC50 [1] was 200 nM and the IC50 [2] was 110 nM.
For `Cc1c(CCN2CCN3C[C@@H](c4ccc(F)c(C#N)c4)OC[C@@H]3C2)ccc2c1COC2=O` [Example 72], the IC50 [1] was 160 nM and the IC50 [2] was 150 nM.
Compound `Cc1c(CCN2CCN3C[C@@H](c4ccc5c(c4)CCOC5=O)OC[C@@H]3C2)ccc2c1COC2=O` [Example 73] has an IC50 [1] of 300 nM and an IC50 [2] of 570 nM.
Compound `COc1cc([C@H]2CN3CCN(CCc4ccc5c(c4C)COC5=O)C[C@@H]3CO2)ccc1C#N` [Example 75] has an IC50 [1] of 70 nM and an IC50 [2] of 110 nM.
`COc1cc([C@@H]2CN3CCN(CCc4ccc5c(c4C)COC5=O)C[C@@H]3CO2)ccc1C#N` [Example 76] gave an IC50 [1] of 90 nM and an IC50 [2] of 440 nM.
`Cc1c([C@H]2CN3CCN(CCc4ccc5c(c4C)COC5=O)C[C@H]3CO2)ccc(F)c1C#N` [Example 79] showed an IC50 [1] of 70 nM and an IC50 [2] of 270 nM.
Work on `Cc1c([C@@H]2CN3CCN(CCc4ccc5c(c4C)COC5=O)C[C@H]3CO2)ccc(F)c1C#N` [Example 80] yielded an IC50 [1] of 50 nM and an IC50 [2] of 60 nM.
`Cc1c([C@@H]2CN3CCN(CCc4ccc5c(c4)CC(C)OC5=O)C[C@H]3CO2)ccc2c1COC2=O` (some centres unmarked) [Example 81] gave an IC50 [1] of 120 nM and an IC50 [2] of 90 nM.
Compound `COc1c(C#N)ccc(CCN2CCN3C[C@@H](c4ccc5c(c4C)COC5=O)OC[C@@H]3C2)c1C` [Example 82] has an IC50 [1] of 80 nM and an IC50 [2] of 60 nM.
`CCOc1cc(CCN2CCN3C[C@@H](c4ccc5c(c4C)COC5=O)OC[C@@H]3C2)ccc1C#N` [Example 83] gave an IC50 [1] of 90 nM and an IC50 [2] of 120 nM.
In the case of `Cc1c([C@@H]2CN3CCN(CCc4ccc5c(c4)C[C@H](C)OC5=O)C[C@H]3CO2)ccc2c1COC2=O` [Example 86], the IC50 [1] is reported as 80 nM and the IC50 [2] is reported as 80 nM.
In the case of `Cc1c([C@@H]2CN3CCN(CCc4ccc5c(c4)C[C@@H](C)OC5=O)C[C@H]3CO2)ccc2c1COC2=O` [Example 87], the IC50 [1] is reported as 50 nM and the IC50 [2] is reported as 110 nM.
Compound `Cc1c([C@@H]2CN3CCN(CCc4ccc5c(c4)C[C@H](C)OC5=O)C[C@H]3CO2)ccc(F)c1C#N` [Example 88] has an IC50 [1] of 50 nM and an IC50 [2] of 190 nM.
`Cc1c(CCN2CCN3C[C@H](c4ccc5c(c4Cl)COC5=O)OC[C@@H]3C2)ccc2c1COC2=O` [Example 89] showed an IC50 [1] of 100 nM and an IC50 [2] of 200 nM.
`Cc1c(C(C)CN2CCN3C[C@@H](c4ccc5c(c4C)COC5=O)OC[C@@H]3C2)ccc2c1COC2=O` (some centres unmarked) [Example 90] gave an IC50 [1] of 230 nM and an IC50 [2] of 110 nM.
Work on `Cc1c([C@@H]2CN3CCN(CCc4ccc5c(c4Br)COC5=O)C[C@H]3CO2)ccc2c1COC2=O` [Example 91] yielded an IC50 [1] of 210 nM and an IC50 [2] of 90 nM.
